{"source": "the RepoRT retention time repository"}
{"assay": "Waters ACQUITY UPLC HSS T3, 0.4 mL/min; A: water + 0.1% formic acid; B: acetonitrile + 0.1% formic acid; gradient (min/%B) 0/5 1.5/5 12/95 14/95 14.01/100 17/100", "conditions": "stereoisomer not certain", "units": {"LC retention time": "min"}}
{"smiles": "CC1CCC(C(C)(O)COC2OC(CO)C(O)C(O)C2O)CC1O", "note": "(centres undefined)", "LC retention time": 5.08}
{"smiles": "NCCCCC(=O)O", "LC retention time": 1.02}
{"smiles": "CC1CCC2(C(=O)O)CCC3(C)C(=CCC4C5(C)CC(O)C(OC(=O)C=Cc6ccc(O)cc6)C(C)(C)C5CCC43C)C2C1C", "note": "(centres undefined)", "LC retention time": 11}
{"smiles": "Nc1cncn1C1OC(COP(=O)(O)O)C(O)C1O", "note": "(centres undefined)", "LC retention time": 0.711}
{"smiles": "CSCCC(N)C(=O)NC(CCCN=C(N)N)C(=O)O", "note": "(centres undefined)", "LC retention time": 3.75}
{"smiles": "CCCCCC(N)C(=O)O", "note": "(centres undefined)", "LC retention time": 0.772}
{"smiles": "CC1C(=O)OC2C3=C(C(=O)CC3(C)O)C(C)(O)CCC12", "note": "(centres undefined)", "LC retention time": 6.31}
{"smiles": "C=Cc1c2[nH]c(c1C)Cc1[nH]c(c(CCC(=O)O)c1C)Cc1[nH]c(c(C)c1CCC(=O)O)Cc1[nH]c(c(C)c1C=C)C2", "LC retention time": 4.78}
{"smiles": "CC(C)=CCCC(C)(O)C1CCC2(C)C1C(O)CC1C3(C)CCC(OC4OC(CO)C(O)C(O)C4OC4OC(CO)C(O)C(O)C4O)C(C)(C)C3CCC12C", "note": "(centres undefined)", "LC retention time": 9.82}
{"smiles": "CC1=C2C(CC3(C)OC3CCC3(C)OC3C2O)OC1=O", "note": "(centres undefined)", "LC retention time": 6.31}
{"smiles": "COC(=O)C12CCC(C)(C)CC1C1=CCC3C4(C)CCC(OC(=O)C=Cc5ccc(OC)cc5)C(C)(C)C4CCC3(C)C1(C)CC2", "note": "(centres undefined)", "LC retention time": 13.1}
{"smiles": "NCCCCCCCCCCCC(=O)O", "LC retention time": 6.54}
{"smiles": "C[N+](C)(C)CCOP(=O)([O-])O", "LC retention time": 0.761}
{"smiles": "Nc1ncnc2c1ncn2C1OC(COP(=O)(O)O)C(O)C1O", "note": "(centres undefined)", "LC retention time": 0.934}
{"smiles": "COC1(CCC(C)COC2OC(CO)C(O)C(O)C2O)OC2CC3C4CCC5CC(=O)CCC5(C)C4CCC3(C)C2C1C", "note": "(centres undefined)", "LC retention time": 9.93}
{"smiles": "CC1CCC2(NC1)OC1CC3C4CC=C5CC(OC6OC(CO)C(OC7OC(C)C(O)C(O)C7O)C(O)C6O)CCC5(C)C4CCC3(C)C1C2C", "note": "(centres undefined)", "LC retention time": 9.86}
{"smiles": "CCCCCCCCCCCCCCCC(=O)OC1C(C)OC(OC2C(OCCCC)OC(CO)C(O)C2O)C(O)C1O", "note": "(centres undefined)", "LC retention time": 10.4}
{"smiles": "CCC(=O)C1CC(C)C2(CC(=O)C3(C)C4=C(CCC32C)C2(C)C=CC(=O)C(C)(CO)C2CC4)O1", "note": "(centres undefined)", "LC retention time": 5.53}
{"smiles": "Oc1cc(O)c2c(c1)OC(c1cc(O)c(O)c(O)c1)C(O)C2", "note": "(centres undefined)", "LC retention time": 1.05}
{"smiles": "NCC1CCC(C(=O)O)CC1", "note": "(centres undefined)", "LC retention time": 0.828}
{"smiles": "Nc1[nH]c(=O)nc2c1ncn2C1CC(O)C(COP(=O)(O)O)O1", "note": "(centres undefined)", "LC retention time": 0.934}
{"smiles": "CCCCCCC=CCCCCCCCCCC(=O)OC(CCC(=O)[O-])[N+](C)(C)C", "note": "(centres undefined)", "LC retention time": 9.56}
{"smiles": "CCCCCC(O)C=CC1C(O)CC(O)C1CC(=O)CCC(=O)O", "note": "(centres undefined)", "LC retention time": 8.51}
{"smiles": "CC(C)OC(=O)C(C(=O)OC(C)C)=C1SCCS1", "LC retention time": 1.14}
{"smiles": "C=CC(C)(CCC=C(C)CCC=C(C)CCC(OC1OC(CO)C(O)C(O)C1O)C(C)(C)O)OC1OC(CO)C(O)C(O)C1O", "note": "(centres undefined)", "LC retention time": 4.81}
{"smiles": "CC(=O)OC(CC(=O)[O-])C[N+](C)(C)C", "note": "(centres undefined)", "LC retention time": 0.839}
{"smiles": "CC(C)=CCCC(C)(O)C1CCC2(C)C1C(O)CC1C3(C)CCC(OC4OC(COC5OCC(O)C(O)C5O)C(O)C(O)C4O)C(C)(C)C3CCC12C", "note": "(centres undefined)", "LC retention time": 10.8}
{"smiles": "CC(=O)C1CCC2C3CCC4CC(=O)CCC4(C)C3CCC12C", "note": "(centres undefined)", "LC retention time": 11.8}
{"smiles": "CC1=CC(=O)C2(C(C)C)C(=O)C3=C(C(O)C4OC(=O)C35CCCC(C)(C)C45)C12", "note": "(centres undefined)", "LC retention time": 10.6}
